Patent US6746667B2, “Adhesive treatment for tinea pedis” (Closure Medical Corporation, priority 2001, dated 2004)

Assay: observation of haloprogin / 2-octyl cyanoacrylate monomer composition after preparation
Assay type: physicochemical
Conditions: 30 mg in 2 mL 2-octyl cyanoacrylate monomer; about one minute and at least twenty-four hours after preparation
Method: A 2-octyl cyanoacrylate monomer composition is prepared by adding 30 mg of haloprogin, an anti-fungal agent, to 2 mL of 2-octyl cyanoacrylate monomer. The mixture is sealed in a glass vial and stirred. The characteristics of the composition are observed at about one minute after preparation and later at least twenty-four hours after preparation.

- premature polymerization of the monomer (stability): does not cause premature polymerization
- solubility in the monomer: soluble in the monomer
Structure (SMILES): Clc1cc(Cl)c(OCC#CI)cc1Cl [haloprogin]
